The source of these data is PubChem BioAssay (NCI).

Molecules are shown by their SMILES.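 Briefly, cells in 96-well plates were exposed to five compound concentrations for 48 h, and endpoints were estimated by linear interpolation. The concentration for 50% growth inhibition is given as GI50. Definition used: TGI = concentration required for complete inhibition of growth.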

What all share (assay): DTP human tumour cell line panel, 48 h
In assay [1] the test system is A549 NSCLC.
The subject of assay [2] is DU-145 prostate.
The test system of assay [3] is MCF7 breast.
In assay [4] the test system is NCI-H226 lung.
Assay [5] relates to NCI-H23 lung.
Assay [6] relates to NCI-H522 lung.
Assay [7] relates to SF-268 CNS.
Assay [8] relates to SF-295 CNS.
Assay [9] deals with SK-MEL-2 melanoma.
For assay [10], the system named is SR leukemia.

With `CN1CC[C@H](N(C)C(=O)N2CC(c3cc(F)ccc3F)=C[C@@]2(CO)c2ccccc2)[C@H](F)C1`, the concentration for 50% growth inhibition (GI50) in assay [1] was 0.0383 µM; in assay [2] it was 0.033 µM; in assay [3], 0.00333 µM; in assay [4] it was 40.4 µM; in assay [5], 0.0371 µM; in assay [6], 0.00871 µM. For the same molecule, the GI50 in assay [7] was 0.0279 µM; in [8], 0.0148 µM; in [9], 0.0282 µM; in assay [10] it was 0.00871 µM. The concentration for total growth inhibition (TGI) in [1] is greater than 100 µM; in assay [2], 35.4 µM; in [3], 77.6 µM; in assay [4] it was greater than 100 µM; in assay [5] it was greater than 100 µM; in [7], greater than 100 µM. For the same molecule, the TGI in [8] is 18.2 µM; in assay [9] it was 79.4 µM; in [10], 40.5 µM.

On to `Cc1ccc(CNc2ccc(Cl)cc2NCc2ccc(C)c(O)c2)cc1O`, for which the GI50 in assay [1] was 8.13 µM; in [2] it was 7.71 µM; in assay [3], 6.18 µM; in [4] it was 10 µM; in [5] it was 7.33 µM; in assay [6], 6.59 µM. In addition, the GI50 is 7 µM in [7], 8.24 µM in assay [8], 6.82 µM in assay [9] and 5.75 µM in [10]. The TGI in [1] turned out to be 15.3 µM; in assay [2], 14.4 µM; in assay [3], 14.3 µM; in assay [4], 22.1 µM; in assay [5], 14.8 µM; in assay [6], 13.9 µM. Moreover, the total growth inhibition concentration (TGI) in [7] was 14.2 µM; in assay [8], 15.2 µM; in assay [9], 14.5 µM; in [10], 18.2 µM.

Turning to `CC/C(=C\c1ccc(N(C)C)cc1)c1ccncc1`, the GI50 in assay [1] is 5.5 µM; in [2], 9.47 µM; in assay [3] it was 9.31 µM; in assay [4], 14.1 µM; in assay [5], 4.96 µM; in assay [6], 5.05 µM. Moreover, the GI50 is 11.2 µM in assay [7], 3.44 µM in assay [8], 8.51 µM in [9] and 3.24 µM in assay [10]. For the same molecule, the TGI in [1], in assay [2], in [3], in assay [4], in assay [5] and in [6] was greater than 100 µM each time. In addition, the TGI in assay [7] was greater than 100 µM; in assay [8], 21.1 µM; in assay [9], greater than 100 µM; in [10], 30.1 µM.

Turning to `O=C(c1ccco1)c1c(C(F)(F)F)n([O-])c2cc(Cl)c(Cl)cc2[n+]1=O`, the GI50 in assay [1] is 1.04 µM; in [2] it was 0.787 µM; in assay [3] it was 0.123 µM; in assay [4], 1.15 µM; in assay [5], 0.545 µM; in assay [6] it was 0.202 µM. For the same molecule, the GI50 in assay [7] was 0.236 µM; in assay [8], 0.247 µM; in assay [9], 3.07 µM; in assay [10], 0.0497 µM. Further, the concentration for total growth inhibition (TGI) worked out at 2.55 µM in [1]; 2.03 µM in assay [2]; 0.452 µM in assay [3]; 3.01 µM in [4]; 1.36 µM in assay [5]; 1.33 µM in assay [6]. The TGI in assay [7] amounted to 0.774 µM; in assay [8], 0.825 µM; in assay [9], 8.89 µM; in assay [10], 50 µM.

Regarding `COc1cc2nc(NC3CCC3)nc(NC3CCN(C(C)C)CC3)c2cc1OC`, the GI50 in [1] is 3.08 µM; in assay [2] it was 4.04 µM; in assay [3] it was 2.96 µM; in assay [4], 6 µM; in assay [5], 4.61 µM; in assay [6], 1.96 µM. For the same molecule, the GI50 in assay [7] was 2.5 µM; in [8], 1.87 µM; in assay [9], 1.9 µM; in assay [10], 0.631 µM. In addition, the total growth inhibition concentration (TGI) in assay [1] was 14.5 µM; in assay [2], 14.9 µM; in [3], 13 µM; in assay [4], 21.8 µM; in assay [5], 17.7 µM; in assay [6] it was 4.52 µM. Besides, the total growth inhibition concentration (TGI) was determined as 8.88 µM in assay [7], 3.67 µM in [8], 3.79 µM in assay [9] and 3.33 µM in assay [10].

Turning to `CCOc1ccc(-c2nc3ccc(-c4nc5ccc(N6CCN(C)CC6)cc5[nH]4)cc3[nH]2)cc1OCC`, the GI50 is 8.34 µM in assay [1]; 2.37 µM in [2]; 0.498 µM in assay [3]; 1.17 µM in assay [4]; 1.52 µM in assay [5]; 1.16 µM in assay [6]. For the same molecule, the GI50 in assay [7] was 1.85 µM; in assay [8] it was 1.98 µM; in assay [9], 1.49 µM; in assay [10], 0.678 µM. Besides, the TGI in [1] was 28.5 µM; in assay [2] it was 8.1 µM; in assay [3], 3.05 µM; in [4], 4.8 µM; in assay [5], 4.45 µM; in [6] it was 3.8 µM. Moreover, the concentration for total growth inhibition (TGI) in [7] turned out to be 6.9 µM; in assay [8] it was 16.1 µM; in assay [9], 3.27 µM; in assay [10], 7.78 µM.

For the molecule `CCN(CC)CCN1C(=O)c2cccc3cc(N)cc(c23)C1=O`, the TGI in assay [1] was greater than 100 µM; in [2], greater than 100 µM; in assay [3] it was greater than 100 µM; in assay [4], 36.6 µM; in assay [5], 20.3 µM; in assay [6], 21.8 µM. For the same molecule, the total growth inhibition concentration (TGI) was greater than 100 µM in assay [7], 32.5 µM in [8], 37.6 µM in [9] and 39.8 µM in assay [10].

With `COc1cc(F)c(F)c(F)c1C(=O)c1cnc(NC2CCN(S(C)(=O)=O)CC2)nc1N`, the GI50 in assay [1] was 1 µM; in [2], 2.58 µM; in assay [3] it was 0.166 µM; in [4], 1.86 µM; in assay [5], 1.24 µM; in assay [6], 5.56 µM. The GI50 is 2.78 µM in [7], 1.58 µM in assay [8], 3.02 µM in [9] and 0.371 µM in [10]. Moreover, the concentration for total growth inhibition (TGI) is greater than 25 µM in [1]; greater than 22 µM in assay [2]; greater than 25 µM in assay [3]; 15.7 µM in [4]; 14.8 µM in [5]; 15.6 µM in assay [6]. Moreover, the TGI in [7] was greater than 18.9 µM; in assay [8], greater than 9.45 µM; in [9] it was 7.46 µM; in assay [10], greater than 10 µM.
